Test results taken from the NIST ThermoML archive (doi:10.1021/acs.jced.6b00210).

Assay: xn = mol fraction of the nth substance listed
Conditions: 100 kPa, Liquid; for mass density: Vibrating tube method; for viscosity: Concentric cylinders viscometry

Nc1ccccc1 [aniline] + CC(C)O
Conditions | mass density, 308.15 K [kg/m3] | mass density, 313.15 K [kg/m3] | mass density, 318.15 K [kg/m3] | mass density, 323.15 K [kg/m3] | viscosity, 313.15 K [mPa·s] | viscosity, 318.15 K [mPa·s] | viscosity, 323.15 K [mPa·s]
x1 = 0.0813 | 796.4 | 791.9 | 787.2 | 782.4 | 1.29 | 1.125 | 0.97
x1 = 0.1599 | 818.5 | 814 | 809.2 | 804.3 | 1.23 | 1.076 | 0.91
x1 = 0.2396 | 840 | 835.5 | 830.7 | 825.7 | 1.18 | 1.043 | 0.88
x1 = 0.349 | 868.2 | 863.6 | 858.9 | 853.8 | 1.15 | 1.02 | 0.85
x1 = 0.4402 | 890.6 | 885.9 | 881.2 | 876.2 | 1.14 | 1.03 | 0.86
x1 = 0.5598 | 918.5 | 913.8 | 909.2 | 904.1 | 1.2 | 1.08 | 0.91
x1 = 0.6501 | 938.5 | 933.9 | 929.2 | 924.2 | 1.3 | 1.166 | 1.01
x1 = 0.74 | 957.6 | 953.1 | 948.5 | 943.4 | 1.48 | 1.34 | 1.18
x1 = 0.8499 | 980 | 975.6 | 971.1 | 966.1 | 1.79 | 1.6 | 1.45
x1 = 0.9402 | 997.7 | 993.3 | 988.9 | 984 | 2.13 | 1.9 | 1.74
x1 = 1 | 1009 | 1004.7 | 1000.4 | 995.5 | 2.43 | 2.14 | 1.96
